{"source": "patent US11865103B2", "about": "“Methods of treating disorders associated with glycosylation defective proteins” (CASE WESTERN RESERVE UNIVERSITY, priority 2016, dated 2024)", "key": {"[1]": {"system": "hCLRN1^N48K-YFP; clrn1^+/+ larvae", "assay": "Larval survival/lethality by TG or ART dose and treatment duration", "format": "in vivo, zebrafish", "set-up": "key: ‘S’ =Surviving; ‘L’ = Lethal; ‘S/L’ Larvae surviving with apoptosis/necrosis of hair cells", "method": "Thapsigargin (TG, 1 mg, Sigma-Aldrich, #T9033) stock in 100% DMSO was diluted in E3 medium to make the required final concentration of the drug. Five different concentrations that were earlier reported to induce ER stress and are non-toxic or lower lethal dose (LD50) in the zebrafish (0.1, 0.5, 1.0, 2.5, 5 μM concentrations) were used in this study. A total of 25 larvae per dosage and treatment duration from the genotypes hCLRN1^N48K-YFP; clrn1^+/+ and hCLRN1-YFP; clrn1^+/+, no older than 72 hours post fertilization (hpf) at the start of the experiment, were placed in a well of 12-well uncoated culture plate (BD Falcon, Canaan, CT). For ER stress induction, larvae were incubated in different dosage of TG from 1 hr to overnight at 28.5° C., followed by three times wash with E3 medium at 28.5° C. (Table 2) and hair cells from the hCLRN1^N48K-YFP; clrn1^+/+ and hCLRN1-YFP; clrn1^+/+ lines were examined for the respective protein distribution pattern in the hair cell bundle and the cell body. Live confocal images of ‘O’ and ‘ML1’ neuromasts per larvae were capture using Leica SP2 confocal microscope with 40× oil immersion objective. Unadjusted 1 micron middle section images of four hair bundles per ML1 neuromast of larvae from TG treated and untreated groups were analyzed using Image J software version v. 1.48 (FIG. 4). The hair bundle trafficked amount of hCLRN1^N48K protein corresponds to the change in YFP intensity in the hair bundle in the TG treated larvae. Quantification of YFP fluorescence intensity was carried out as described in the previous experiment for unconventional trafficking of hCLRN1^N48K-YFP by hGRASP55 cargos. […] Student's t-test was used to confirm the observed changes in the YFP intensity in the hair bundles of TG treatment compared to untreated hCLRN1^N48K-YFP; clrn1^+/+ larvae, is significant (FIG. 4J).\nArthemisinin (ART, 100 mg, Sigma-Aldrich, #361593) in 100% DMSO was diluted in E3 medium to make the final concentration. Five different concentrations within the range of reported ER stress inducing level in the zebrafish (0.1, 0.25, 0.4, 0.5, and 1 μM concentrations) were used in this study. A total of 25 larvae, no older than 72 hpf at the start of the experiment, were placed in a well of 12-well uncoated culture plate (BD 35 Falcon, Canaan, CT). For ER stress induction, larvae were exposed in different dosage of ART for different duration at 28.5° C. (Table 3) and washed three times with E3 medium, and hair cells from the hCLRN1-YFP; clrn1^+/+ larvae and hCLRN1^N48K-YFP; clrn1^+/+ larvae were examined for the respective protein distribution pattern in the hair cell bundle and the cell body. Live confocal Z-stack images of otic ‘O’ and middle ‘ML’ neuromasts per larvae of hCLRN1-YFP; clrn1^+/+ larvae and hCLRN1^N48K-YFP; clrn1^+/+ genotypes from the untreated group in the E3 medium, 0.01% DMSO treatment group and ART treatment group were capture using Leica SP2 confocal microscope at 40× oil immersion objective. Hair cells from 2 otic (0) and 2 middle (ML) neuromasts per larvae were examined for the change in YFP intensity in the hair bundle and cell body. From the captured confocal images of these neuromast hair cells, unadjusted 1 micron middle section images of 4 mature hair bundles from ML1 neuromast per larvae were considered for the YFP intensity quantification in unadjusted ROI covering the middle section of each hair bundles using the imageJ software. […] The hair bundle trafficked amount of hCLRN1^N48K protein corresponds to the change in YFP intensity in the hair bundle in the ART treated larvae. Quantification of YFP fluorescence intensity was carried out as described in the previous experiment for unconventional trafficking of hCLRN1^N48K-YFP by hGRASP55 cargos. Student's t-test was used to confirm the observed changes in the YFP intensity in the hair bundles of ART treatment compared to untreated and TG treated hCLRN1^N48K-YFP; clrn1^+/+ larvae, is significant (FIG. 4J)."}, "[2]": {"system": "hCLRN1^N48K-YFP; clrn1^+/+ larvae", "assay": "Larval survival/lethality by TG or ART dose and treatment duration", "format": "in vivo, zebrafish", "conditions": "TG dosages higher than 1 μM or longer treatment duration", "method": "Thapsigargin (TG, 1 mg, Sigma-Aldrich, #T9033) stock in 100% DMSO was diluted in E3 medium to make the required final concentration of the drug. Five different concentrations that were earlier reported to induce ER stress and are non-toxic or lower lethal dose (LD50) in the zebrafish (0.1, 0.5, 1.0, 2.5, 5 μM concentrations) were used in this study. A total of 25 larvae per dosage and treatment duration from the genotypes hCLRN1^N48K-YFP; clrn1^+/+ and hCLRN1-YFP; clrn1^+/+, no older than 72 hours post fertilization (hpf) at the start of the experiment, were placed in a well of 12-well uncoated culture plate (BD Falcon, Canaan, CT). […] Unadjusted 1 micron middle section images of four hair bundles per ML1 neuromast of larvae from TG treated and untreated groups were analyzed using Image J software version v. […] Quantification of YFP fluorescence intensity was carried out as described in the previous experiment for unconventional trafficking of hCLRN1^N48K-YFP by hGRASP55 cargos. […]\nArthemisinin (ART, 100 mg, Sigma-Aldrich, #361593) in 100% DMSO was diluted in E3 medium to make the final concentration. […] Quantification of YFP fluorescence intensity was carried out as described in the previous experiment for unconventional trafficking of hCLRN1^N48K-YFP by hGRASP55 cargos. […]"}}, "data": [{"smiles": "C[C@@H]1CC[C@H]2[C@@H](C)C(=O)O[C@@H]3O[C@@]4(C)CC[C@@H]1[C@]32OO4", "note": "[ART, Artemisinin]", "values": [{"measurement": "Larvae survival", "setting": "[1]; ART 0.1 μM, exposure 1 h", "result": "S"}, {"measurement": "Larvae survival", "setting": "[1]; ART 0.1 μM, exposure 2 h", "result": "S"}, {"measurement": "Larvae survival", "setting": "[1]; ART 0.1 μM, exposure 4 h", "result": "S"}, {"measurement": "Larvae survival", "setting": "[1]; ART 0.1 μM, exposure 6 h", "result": "S"}, {"measurement": "Larvae survival", "setting": "[1]; ART 0.1 μM, exposure 8 h", "result": "S"}, {"measurement": "Larvae survival", "setting": "[1]; ART 0.1 μM, exposure 10 h", "result": "S"}, {"measurement": "Larvae survival", "setting": "[1]; ART 0.1 μM, post-exposure recovery time 10 h", "result": "S"}, {"measurement": "Larvae survival", "setting": "[1]; ART 0.1 μM, post-exposure recovery time 24 h", "result": "S"}, {"measurement": "Larvae survival", "setting": "[1]; ART 0.1 μM, post-exposure recovery time 48 h", "result": "S"}, {"measurement": "Larvae survival", "setting": "[1]; ART 0.25 μM, exposure 1 h", "result": "S"}, {"measurement": "Larvae survival", "setting": "[1]; ART 0.25 μM, exposure 2 h", "result": "S"}, {"measurement": "Larvae survival", "setting": "[1]; ART 0.25 μM, exposure 4 h", "result": "S"}, {"measurement": "Larvae survival", "setting": "[1]; ART 0.25 μM, exposure 6 h", "result": "S"}, {"measurement": "Larvae survival", "setting": "[1]; ART 0.25 μM, exposure 8 h", "result": "S"}, {"measurement": "Larvae survival", "setting": "[1]; ART 0.25 μM, exposure 10 h", "result": "S"}, {"measurement": "Larvae survival", "setting": "[1]; ART 0.25 μM, post-exposure recovery time 10 h", "result": "S"}, {"measurement": "Larvae survival", "setting": "[1]; ART 0.25 μM, post-exposure recovery time 24 h", "result": "S"}, {"measurement": "Larvae survival", "setting": "[1]; ART 0.25 μM, post-exposure recovery time 48 h", "result": "S"}, {"measurement": "Larvae survival", "setting": "[1]; ART 0.4 μM, 4 hours exposure group, post-exposure recovery time 10 h", "result": "S"}, {"measurement": "Larvae survival", "setting": "[1]; ART 0.4 μM, 4 hours exposure group, post-exposure recovery time 24 h", "result": "S"}, {"measurement": "Larvae survival", "setting": "[1]; ART 0.4 μM, 4 hours exposure group, post-exposure recovery time 48 h", "result": "S"}, {"measurement": "Larvae survival", "setting": "[1]; ART 0.4 μM, exposure 1 h", "result": "S"}, {"measurement": "Larvae survival", "setting": "[1]; ART 0.4 μM, exposure 2 h", "result": "S"}, {"measurement": "Larvae survival", "setting": "[1]; ART 0.4 μM, exposure 4 h", "result": "S"}, {"measurement": "Larvae survival", "setting": "[1]; ART 0.4 μM, exposure 6 h", "result": "S/L"}]}, {"smiles": "C/C=C(/C)C(=O)O[C@H]1C(C)=C2[C@H]([C@@H]1OC(=O)CCCCCCC)[C@@](C)(OC(C)=O)C[C@H](OC(=O)CCC)[C@@]1(O)[C@H]2OC(=O)[C@@]1(C)O", "note": "[TG, Thapsigargin]", "values": [{"measurement": "Lethality to larvae", "setting": "[2]", "result": "lethal"}]}]}
